Data published in ChEMBL document CHEMBL5614390, “Novel EGFR inhibitors against resistant L858R/T790M/C797S mutant for intervention of non-small cell lung cancer” (Eur J Med Chem, 2024).
Calls of active or inactive are those of the source. The calls are words filed in the database; no cut-off is given here.

How the values were obtained:
PC-9 [1] = experiment: Induction of cell cycle arrest in human PC-9 cells expressing EGFR L858R/T790M/C797S mutant assessed as accumulation of cells at G0/G1 phase at low dose incubated for 24 hrs by PI staining based flow cytometric analysis; assay type: functional
PC-9 [2] = experiment: Induction of cell cycle arrest in human PC-9 cells expressing EGFR Del19/T790M/C797S mutant assessed as accumulation of cells at G0/G1 phase at low dose incubated for 24 hrs by PI staining based flow cytometric analysis; assay type: functional
PC-9 [3] = experiment: Induction of cell cycle arrest in human PC-9 cells expressing EGFR L858R/T790M/C797S mutant assessed as S phase cells at 0.1 to 1 uM incubated for 24 hrs by PI staining based flow cytometric analysis (reference value: 34.5 +/- 3.3 %); assay type: functional; details: dose 0.1-1 µM
PC-9 [4] = experiment: Induction of apoptosis in human PC-9 cells expressing EGFR L858R/T790M/C797S mutant assessed as early apoptotic cells at 0.1 uM incubated for 48 hrs by Annexin V-FITC/PI staining based flow cytometric analysis (reference value: 0.210 %); assay type: functional
PC-9 [5] = experiment: Induction of apoptosis in human PC-9 cells expressing EGFR L858R/T790M/C797S mutant assessed as necrotic cells at 0.1 uM incubated for 48 hrs by Annexin V-FITC/PI staining based flow cytometric analysis (reference value: 0.540 %); assay type: functional
PC-9 [6] = experiment: Induction of apoptosis in human PC-9 cells expressing EGFR L858R/T790M/C797S mutant assessed as late apoptotic cells at 0.5 uM incubated for 48 hrs by Annexin V-FITC/PI staining based flow cytometric analysis (reference value: 0.360 %); assay type: functional
PC-9 [7] = experiment: Induction of apoptosis in human PC-9 cells expressing EGFR L858R/T790M/C797S mutant assessed as viable cells at 1 uM incubated for 48 hrs by Annexin V-FITC/PI staining based flow cytometric analysis (reference value: 98.9 %); assay type: functional; details: Homo sapiens, PC-9, read-out: Activity
PC-9 [8] = experiment: Induction of apoptosis in human PC-9 cells expressing EGFR L858R/T790M/C797S mutant assessed as early apoptotic cells at 1 uM incubated for 48 hrs by Annexin V-FITC/PI staining based flow cytometric analysis (reference value: 0.210 %); assay type: functional
PC-9 [9] = experiment: Induction of apoptosis in human PC-9 cells expressing EGFR L858R/T790M/C797S mutant assessed as necrotic cells at 1 uM incubated for 48 hrs by Annexin V-FITC/PI staining based flow cytometric analysis (reference value: 0.540 %); assay type: functional
PC-9 [10] = experiment: Induction of apoptosis in human PC-9 cells expressing EGFR Del19/T790M/C797S mutant assessed as viable cells at 0.1 uM incubated for 48 hrs by Annexin V-FITC/PI staining based flow cytometric analysis (reference value: 99.8 %); assay type: functional; details: read-out: Activity
PC-9 [11] = experiment: Induction of apoptosis in human PC-9 cells expressing EGFR Del19/T790M/C797S mutant assessed as necrotic cells at 0.1 uM incubated for 48 hrs by Annexin V-FITC/PI staining based flow cytometric analysis (reference value: 0.090 %); assay type: functional
PC-9 [12] = experiment: Induction of apoptosis in human PC-9 cells expressing EGFR Del19/T790M/C797S mutant assessed as early apoptotic cells at 0.5 uM incubated for 48 hrs by Annexin V-FITC/PI staining based flow cytometric analysis (reference value: 0.050 %); assay type: functional
PC-9 [13] = experiment: Induction of apoptosis in human PC-9 cells expressing EGFR Del19/T790M/C797S mutant assessed as early apoptotic cells at 1 uM incubated for 48 hrs by Annexin V-FITC/PI staining based flow cytometric analysis (reference value: 0.050 %); assay type: functional
PC-9 [14] = experiment: Induction of apoptosis in human PC-9 cells expressing EGFR Del19/T790M/C797S mutant assessed as late apoptotic cells at 1 uM incubated for 48 hrs by Annexin V-FITC/PI staining based flow cytometric analysis (reference value: 0.040 %); assay type: functional
PC-9 [15] = experiment: Antitumor activity against human PC-9 cells expressing EGFR L858R/T790M/C797S mutant xenografted in BALB/c nude mouse assessed as reduction in tumor weight at 10 to 40 mg/kg, po administered for 18 days; assay type: functional, organism-based; details: dose 10-40 mg/kg, time 18.0 day
PC-9 [16] = experiment: Antitumor activity against human PC-9 cells expressing EGFR L858R/T790M/C797S mutant xenografted in BALB/c nude mouse assessed as tumor growth inhibition at 10 mg/kg, po administered for 18 days relative to control; assay type: functional; details: PC-9, 432 h, time 18 day, read-out: TGI
PC-9 [17] = experiment: Antitumor activity against human PC-9 cells expressing EGFR L858R/T790M/C797S mutant xenografted in BALB/c nude mouse assessed as tumor growth inhibition at 40 mg/kg, po administered for 18 days relative to control; assay type: functional; details: Mus musculus, PC-9, 432 h, time 18 day, read-out: TGI
[18] = Metabolic stability in mouse liver microsomes assessed as half-life at 10 uM preincubated for 5 mins followed by NADPH addition and measured upto 60 mins by HPLC analysis; assay type: ADME, Microsome; details: time < 65 min
[19] = Metabolic stability in dog liver microsomes assessed as half-life at 10 uM preincubated for 5 mins followed by NADPH addition and measured upto 60 mins by HPLC analysis; assay type: ADME, Canis lupus familiaris, Microsome; details: time < 65 min
[20] = Metabolic stability in human liver microsomes assessed as half-life at 10 uM preincubated for 5 mins followed by NADPH addition and measured upto 60 mins by HPLC analysis; assay type: ADME, Microsome; details: time < 65 min
[21] = Metabolic stability in rabbit liver microsomes assessed as intrinsic clearance at 10 uM preincubated for 5 mins followed by NADPH addition and measured upto 60 mins by HPLC analysis; assay type: ADME, Oryctolagus cuniculus, Microsome; details: time < 65 min, read-out: CLH
[22] = Metabolic stability in dog liver microsomes assessed as intrinsic clearance at 10 uM preincubated for 5 mins followed by NADPH addition and measured upto 60 mins by HPLC analysis; assay type: ADME, Canis lupus familiaris, Microsome; details: time < 65 min, read-out: CLH
NCI-H1975 = experiment: cells; details: Homo sapiens, NCI-H1975, 72 h
Description: Cytotoxicity against human NCI-H1975 cells expressing EGFR L858R/T790M mutant assessed as inhibition of cell proliferation incubated for 72 hrs by CCK8 assay

PC-9 [23] = experiment: cells; details: Homo sapiens, PC-9, 72 h
Description: Cytotoxicity against human PC-9 cells expressing EGFR Del19 mutant assessed as inhibition of cell proliferation incubated for 72 hrs by CCK8 assay

HCC827 = experiment: cells; details: Homo sapiens, HCC827, 72 h
Description: Cytotoxicity against human HCC827 cells expressing EGFR Del19 mutant assessed as inhibition of cell proliferation incubated for 72 hrs by CCK8 assay

A-431 = experiment: cells; details: Homo sapiens, A-431, 72 h
Description: Cytotoxicity against human A-431 cells assessed as inhibition of cell proliferation incubated for 72 hrs by CCK8 assay

**Q.** With C=CC(=O)Nc1cc(Nc2ncc(F)c(-c3ccc4cc(C(=O)NC)n(C(C)C)c4c3)n2)ccc1N1CCN(C)CC1 as the compound, how does the Activity (PC-9 [1]) read?
**A.** Active

**Q.** And the Activity (PC-9 [2])?
**A.** Active

**Q.** What about the Activity (PC-9 [3]) of the same compound?
**A.** 15.9%

**Q.** What about the Activity (PC-9 [4]) of the same compound?
**A.** 2.03%

**Q.** And the Activity (PC-9 [5])?
**A.** 5.84%

**Q.** And the Activity (PC-9 [6])?
**A.** 6.77%

**Q.** And the viability at 1 µM (PC-9 [7])?
**A.** 58.8%

**Q.** What about the Activity (PC-9 [8]) of the same compound?
**A.** 36.3%

**Q.** What about the Activity (PC-9 [9]) of the same compound?
**A.** 0.91%

**Q.** And the viability at 0.1 µM (PC-9 [10])?
**A.** 85.8%

**Q.** What about the Activity (PC-9 [11]) of the same compound?
**A.** 3.55%

**Q.** What about the Activity (PC-9 [12]) of the same compound?
**A.** 11.8%

**Q.** What about the Activity (PC-9 [13]) of the same compound?
**A.** 11.6%

**Q.** What about the Activity (PC-9 [14]) of the same compound?
**A.** 8.3%

**Q.** What about the Activity (PC-9 [15]) of the same compound?
**A.** Active

**Q.** And the inhibition in vivo at 10 mg/kg (PC-9 [16])?
**A.** 48.7%

**Q.** And the inhibition in vivo at 40 mg/kg (PC-9 [17])?
**A.** 70.6%

**Q.** What about the half-life at 10 µM [18] of the same compound?
**A.** 82.5 min

**Q.** What about the half-life at 10 µM [19] of the same compound?
**A.** 257 min

**Q.** What about the half-life at 10 µM [20] of the same compound?
**A.** 231 min

**Q.** What about the microsomal CLint at 10 µM [21] of the same compound?
**A.** 32.7 µL/min/mg

**Q.** And the microsomal CLint at 10 µM [22]?
**A.** 18 µL/min/mg

**Q.** And the IC50 (NCI-H1975)?
**A.** 106 nM

**Q.** And the IC50 (PC-9 [23])?
**A.** 144 nM

**Q.** And the IC50 (HCC827)?
**A.** 108 nM

**Q.** What about the IC50 (A-431) of the same compound?
**A.** 1070 nM
